Broadly, the inhibition is the percentage by which the read-out fell short of the control.

The assay concerns the target T1, CYP4A (Homo sapiens, UniProt Q02928).
T1 construct: purchased; host or cells: bacterial membranes ('bactosome')
T1 sequence (Q02928 5-519): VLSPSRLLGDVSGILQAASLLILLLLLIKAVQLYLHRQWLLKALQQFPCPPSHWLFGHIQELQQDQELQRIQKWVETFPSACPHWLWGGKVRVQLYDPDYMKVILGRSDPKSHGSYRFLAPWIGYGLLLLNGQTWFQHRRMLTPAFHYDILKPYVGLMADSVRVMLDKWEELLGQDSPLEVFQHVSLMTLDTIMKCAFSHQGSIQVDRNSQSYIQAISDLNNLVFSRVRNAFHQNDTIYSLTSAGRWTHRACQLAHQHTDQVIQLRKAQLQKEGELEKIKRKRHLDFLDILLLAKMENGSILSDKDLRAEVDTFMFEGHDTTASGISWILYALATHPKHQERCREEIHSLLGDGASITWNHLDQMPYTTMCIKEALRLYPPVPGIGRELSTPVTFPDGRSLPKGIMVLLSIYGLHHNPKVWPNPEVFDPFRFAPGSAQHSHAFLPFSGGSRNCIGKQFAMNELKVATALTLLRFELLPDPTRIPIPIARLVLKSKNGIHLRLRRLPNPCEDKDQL
As to the kind of experiment: CYP4A enzyme assay (luminescence, Luciferin-ME). In kind it is biochemical. Conditions: Compound concentration 5 μM; 70%-90%; read-out: % Inhibition 70%-90%. The procedure, abridged: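 Compounds (5 μM) were preincubated 15 min at room temperature with CYP4A bactosomes in 100 mM KPO4, 0.1% BSA, 1 mM DTT. Reaction ran 30 min at room temperature after adding 5 mM Luciferin-ME and NADPH regeneration system. Luminescence after 15 min with detection reagent; inhibition judged by comparing well signals.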

Turning to `O=C([C@H]1CCN(S(=O)(=O)c2ncnn2CCO)C1)N1CCN(c2ccnc3cc(F)ccc23)CC1` [Example 145, (S)-(4-(7-fluoroquinolin-4-yl)piperazin-1-yl)(1-((1-(2-hydroxyethyl)-1H-1,2,4-triazol-5-yl)sulfonyl)pyrrolidin-3-yl)methanone], the inhibition at 5 µM was in the range of 70 to 90%.

Values taken from patent US12612384B2, “Heterocyclic CYP4A inhibitor compounds and compositions thereof” (MBD CO., LTD., priority 2021, dated 2026).
